Reference: ChEMBL document CHEMBL1123898, “Antitumor imidazotetrazines. 14. Synthesis and antitumor activity of 6- and 8-substituted imidazo[5,1-d]-1,2,3,5-tetrazinones and 8-substituted pyrazolo[5,1-d]-1,2,3,5-tetrazinones” (1987)

Columns and labels:
Assay type in all cases: functional
[1] = Antitumor activity was assessed against TLX5 tumors in CBA/CA mouse by inoculation of 2 x 10e5 tumor cells through sc route and number of Survivors to duration was reported at 20 mg/kg ip dose; 1/5; conditions: route subcutaneous
L1210 [2] = experiment: Antitumor activity was assessed against L1210 tumors in B6D2F1 mouse by inoculation of 10e5 tumor cells through intravenous route and mean death of animals (treated/control) was reported at 20 mg/kg peroral dose; conditions: route oral
L1210 [3] = experiment: Antitumor activity was assessed against L1210 tumors in B6D2F1 mouse by inoculation of 10e5 tumor cells through iv route and number of Survivors to duration was reported at 40 mg/kg peroral dose; 2/7; conditions: route oral
[4] = Antitumor activity was assessed against TLX5 tumors in CBA/CA mouse by inoculation of 2 x 10e5 tumor cells through subcutaneous route and mean death of animals (treated/control) was reported at 80 mg/kg dose
L1210 [5] = experiment: Antitumor activity was assessed against L1210 tumors in B6D2F1 mouse by inoculation of 10e5 tumor cells through intravenous route and mean death of animals (treated/control) was reported at 50 mg/kg peroral dose; conditions: route oral
[6] = Antitumor activity was assessed against TLX5 tumors in CBA/CA mouse by inoculation of 2 x 10e5 tumor cells through subcutaneous route and mean death of animals (treated/control) was reported at 20 mg/kg dose
L1210 [7] = experiment: Antitumor activity was assessed against L1210 tumors in B6D2F1 mouse by inoculation of 10e5 tumor cells through intravenous route and mean death of animals (treated/control) was reported at 10 mg/kg peroral dose; conditions: route oral
[8] = Antitumor activity was assessed against TLX5 tumors in CBA/CA mouse by inoculation of 2 x 10e5 tumor cells through subcutaneous route and mean death of animals (treated/control) was reported at 40 mg/kg dose
L1210 [9] = experiment: Antitumor activity was assessed against L1210 tumors in B6D2F1 mouse by inoculation of 10e5 tumor cells through intravenous route and mean death of animals (treated/control) was reported at 40 mg/kg peroral dose; conditions: route oral
[10] = Antitumor activity was assessed against TLX5 tumors in CBA/CA mouse by inoculation of 2 x 10e5 tumor cells through subcutaneous route and mean death of animals (treated/control) was reported at 320 mg/kg dose
[11] = Antitumor activity was assessed against TLX5 tumors in CBA/CA mouse by inoculation of 2 x 10e5 tumor cells through subcutaneous route and mean death of animals (treated/control) was reported at 160 mg/kg dose
L1210 [12] = experiment: Antitumor activity was assessed against L1210 tumors in B6D2F1 mouse by inoculation of 10e5 tumor cells through iv route and mean death of animals (treated/control) was reported at 50 mg/kg po dose
[13] = Antitumor activity was assessed against TLX5 tumors in CBA/CA mouse by inoculation of 2 x 10e5 tumor cells through sc route and mean death of animals (treated/control) was reported at 320 mg/kg ip dose; conditions: route subcutaneous
[14] = Antitumor activity was assessed against TLX5 tumors in CBA/CA mouse by inoculation of 2 x 10e5 tumor cells through sc route and mean death of animals (treated/control) was reported at 40 mg/kg ip dose; conditions: route subcutaneous
L1210 [15] = experiment: Antitumor activity was assessed against L1210 tumors in B6D2F1 mouse by inoculation of 10e5 tumor cells through iv route and mean death of animals (treated/control) was reported at 100 mg/kg po dose
L1210 [16] = experiment: Antitumor activity was assessed against L1210 tumors in B6D2F1 mouse by inoculation of 10e5 tumor cells through iv route and mean death of animals (treated/control) was reported at 200 mg/kg po dose
[17] = Antitumor activity was assessed against TLX5 tumors in CBA/CA mouse by inoculation of 2 x 10e5 tumor cells through sc route and mean death of animals (treated/control) was reported at 160 mg/kg ip dose; conditions: route subcutaneous
L1210 [18] = experiment: Antitumor activity was assessed against L1210 tumors in B6D2F1 mouse by inoculation of 10e5 tumor cells through iv route and number of Survivors to duration was reported at 200 mg/kg po dose; 10/10
[19] = Antitumor activity was assessed against TLX5 tumors in CBA/CA mouse by inoculation of 2 x 10e5 tumor cells through sc route and mean death of animals (treated/control) was reported at 80 mg/kg ip dose; conditions: route subcutaneous
[20] = Antitumor activity was assessed against TLX5 tumors in CBA/CA mouse by inoculation of 2 x 10e5 tumor cells through sc route and number of Survivors to duration was reported at 160 mg/kg ip dose; 1/5; conditions: route subcutaneous
L1210 [21] = experiment: Antitumor activity was assessed against L1210 tumors in B6D2F1 mouse by inoculation of 10e5 tumor cells through iv route and number of survivors to duration was reported at 200 mg/kg po dose; 2/7
L1210 [22] = experiment: Antitumor activity was assessed against L1210 tumors in B6D2F1 mouse by inoculation of 10e5 tumor cells through intravenous route and number of Survivors to duration was reported at 40 mg/kg peroral dose; 5/7; conditions: route oral

Structure (SMILES)	T/C (L1210 [2])	T/C [4]	T/C [6]	T/C (L1210 [7])	T/C [8]	T/C (L1210 [9])	T/C (L1210 [12])	T/C (L1210 [15])	T/C (L1210 [16])	further results
CS(=O)(=O)c1ncn2c(=O)n(CCCl)nnc12	257%	66%	>214%	217%	66%	>310%	–	–	–	Survivors [1]: 1; Survivors (L1210 [3]): 2; T/C (L1210 [5]): 217%
O=C(Nc1ccccc1)c1ncn2c(=O)n(CCCl)nnc12	–	100%	98%	–	103%	–	–	–	–	T/C [10]: 98%; T/C [11]: 98%
CN(C)C(=O)c1cnn2c(=O)n(CCCl)nnc12	–	–	–	–	–	–	144%	250%	>600%	T/C [13]: 48%; T/C [14]: 109%; T/C [17]: >248%; Survivors (L1210 [18]): 10; T/C [19]: 131%; Survivors [20]: 1
CCCc1nc(C(N)=O)c2nnn(CCCl)c(=O)n12	–	–	–	–	–	–	151%	186%	>295%	Survivors (L1210 [21]): 2
CS(=O)(=O)c1cnn2c(=O)n(CCCl)nnc12	307%	–	–	155%	–	>447%	–	–	–	Survivors (L1210 [22]): 5
